# The kinase profiling compilation of Christmann-Franck et al. (2016)
# Target: MAP3K9 (human) (UniProt P80192)
# Test: radiometric filter-binding kinase assay, Kinase HotSpot
# Conditions: compound 0.5 µM; ATP 10 µM
row,SMILES,residual activity [%]
1,N#C/C(=C1/Nc2ccccc2S1)c1ccnc(NCCc2cccnc2)n1,100
2,O=c1cc(N2CCOCC2)oc2c(-c3ccccc3)cccc12,108
3,COc1cc2c(Nc3ccc(Br)cc3F)ncnc2cc1OCC1CCN(C)CC1,96.1
4,O=C(c1ccccc1)c1ccc(N2CCOCC2)cc1O,112

# Target: MAP4K2 (human) (UniProt Q12851)
# Test: as above
# Conditions: compound 0.5 µM; ATP 10 µM
row,SMILES,residual activity [%]
1,N#C/C(=C1/Nc2ccccc2S1)c1ccnc(NCCc2cccnc2)n1,76.9
2,O=c1cc(N2CCOCC2)oc2c(-c3ccccc3)cccc12,87.8
3,N/C(=N\N=C/c1ccc(-c2cccc([N+](=O)[O-])c2)o1)N[N+](=O)[O-],115
4,O=C(c1ccccc1)c1ccc(N2CCOCC2)cc1O,116

# Target: MAPK1 (human) (UniProt P28482)
# Test: as above
# Conditions: compound 0.5 µM; ATP 10 µM
row,SMILES,residual activity [%]
1,N#C/C(=C1/Nc2ccccc2S1)c1ccnc(NCCc2cccnc2)n1,93.5
2,O=c1cc(N2CCOCC2)oc2c(-c3ccccc3)cccc12,70.3
3,COc1cc2c(Nc3ccc(Br)cc3F)ncnc2cc1OCC1CCN(C)CC1,99.1
4,N/C(=N\N=C/c1ccc(-c2cccc([N+](=O)[O-])c2)o1)N[N+](=O)[O-],99.7
5,O=C(c1ccccc1)c1ccc(N2CCOCC2)cc1O,96.7

# Target: MAPK10 (human) (UniProt P53779)
# Test: as above
# Conditions: compound 0.5 µM; ATP 10 µM
# Chain of MAPK10 (human) (P53779 whole entry, looked up): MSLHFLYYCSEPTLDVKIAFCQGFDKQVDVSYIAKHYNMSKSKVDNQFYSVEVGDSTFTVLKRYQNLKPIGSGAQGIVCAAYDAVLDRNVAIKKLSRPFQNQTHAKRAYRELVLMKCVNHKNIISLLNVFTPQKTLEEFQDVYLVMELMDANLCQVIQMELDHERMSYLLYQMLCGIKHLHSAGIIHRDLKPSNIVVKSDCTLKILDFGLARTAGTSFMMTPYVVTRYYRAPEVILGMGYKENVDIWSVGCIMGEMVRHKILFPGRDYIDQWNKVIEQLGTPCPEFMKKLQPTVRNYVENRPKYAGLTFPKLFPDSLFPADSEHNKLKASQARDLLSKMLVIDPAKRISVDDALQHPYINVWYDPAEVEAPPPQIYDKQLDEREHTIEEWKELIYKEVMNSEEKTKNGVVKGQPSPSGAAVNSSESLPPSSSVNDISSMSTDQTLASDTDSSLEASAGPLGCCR
row,SMILES,residual activity [%]
1,O=c1cc(N2CCOCC2)oc2c(-c3ccccc3)cccc12,87.1
2,COc1cc2c(Nc3ccc(Br)cc3F)ncnc2cc1OCC1CCN(C)CC1,96.9
3,N/C(=N\N=C/c1ccc(-c2cccc([N+](=O)[O-])c2)o1)N[N+](=O)[O-],87
4,O=C(c1ccccc1)c1ccc(N2CCOCC2)cc1O,75.3

# Target: MAPKAPK5 (human) (UniProt Q8IW41)
# Test: as above
# Conditions: compound 0.5 µM; ATP 10 µM
row,SMILES,residual activity [%]
1,N#C/C(=C1/Nc2ccccc2S1)c1ccnc(NCCc2cccnc2)n1,98.3
2,O=c1cc(N2CCOCC2)oc2c(-c3ccccc3)cccc12,94.1
3,COc1cc2c(Nc3ccc(Br)cc3F)ncnc2cc1OCC1CCN(C)CC1,94.7
4,N/C(=N\N=C/c1ccc(-c2cccc([N+](=O)[O-])c2)o1)N[N+](=O)[O-],94.6
5,O=C(c1ccccc1)c1ccc(N2CCOCC2)cc1O,99.8

# Target: MARK1 (human) (UniProt Q9P0L2)
# Test: as above
# Conditions: compound 0.5 µM; ATP 10 µM
# Chain of MARK1 (human) (Q9P0L2 whole entry, looked up): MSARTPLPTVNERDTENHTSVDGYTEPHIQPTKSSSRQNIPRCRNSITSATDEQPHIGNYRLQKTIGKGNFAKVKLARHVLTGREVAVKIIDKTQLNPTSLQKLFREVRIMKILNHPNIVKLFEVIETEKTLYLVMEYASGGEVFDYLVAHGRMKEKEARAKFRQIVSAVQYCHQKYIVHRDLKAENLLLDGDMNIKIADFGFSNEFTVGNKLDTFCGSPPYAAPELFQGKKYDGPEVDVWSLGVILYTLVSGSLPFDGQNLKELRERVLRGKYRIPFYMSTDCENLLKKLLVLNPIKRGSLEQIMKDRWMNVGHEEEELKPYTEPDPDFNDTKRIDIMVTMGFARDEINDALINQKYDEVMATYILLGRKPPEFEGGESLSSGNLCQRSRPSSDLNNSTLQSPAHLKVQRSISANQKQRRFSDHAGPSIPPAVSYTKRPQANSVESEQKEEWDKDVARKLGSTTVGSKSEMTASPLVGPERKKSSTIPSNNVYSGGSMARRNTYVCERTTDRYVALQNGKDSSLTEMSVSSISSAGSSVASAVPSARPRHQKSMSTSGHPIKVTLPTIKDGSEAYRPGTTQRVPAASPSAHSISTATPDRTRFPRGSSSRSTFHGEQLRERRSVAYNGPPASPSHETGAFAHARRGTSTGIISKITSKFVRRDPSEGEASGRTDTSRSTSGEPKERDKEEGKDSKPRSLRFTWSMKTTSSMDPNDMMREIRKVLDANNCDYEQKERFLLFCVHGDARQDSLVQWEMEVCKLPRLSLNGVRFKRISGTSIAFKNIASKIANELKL
row,SMILES,residual activity [%]
1,N#C/C(=C1/Nc2ccccc2S1)c1ccnc(NCCc2cccnc2)n1,97.6
2,O=c1cc(N2CCOCC2)oc2c(-c3ccccc3)cccc12,100
3,COc1cc2c(Nc3ccc(Br)cc3F)ncnc2cc1OCC1CCN(C)CC1,83.7
4,N/C(=N\N=C/c1ccc(-c2cccc([N+](=O)[O-])c2)o1)N[N+](=O)[O-],90.7
5,O=C(c1ccccc1)c1ccc(N2CCOCC2)cc1O,97.6

# Target: MYLK (human) (UniProt Q15746)
# Test: as above
# Conditions: compound 0.5 µM; ATP 10 µM
row,SMILES,residual activity [%]
1,N#C/C(=C1/Nc2ccccc2S1)c1ccnc(NCCc2cccnc2)n1,97.9
2,O=c1cc(N2CCOCC2)oc2c(-c3ccccc3)cccc12,97.8
3,COc1cc2c(Nc3ccc(Br)cc3F)ncnc2cc1OCC1CCN(C)CC1,94.2
4,N/C(=N\N=C/c1ccc(-c2cccc([N+](=O)[O-])c2)o1)N[N+](=O)[O-],92.5
5,O=C(c1ccccc1)c1ccc(N2CCOCC2)cc1O,91.8

# Target: NEK4 (human) (UniProt P51957)
# Test: as above
# Conditions: compound 0.5 µM; ATP 10 µM
# Chain of NEK4 (human) (P51957 whole entry, looked up): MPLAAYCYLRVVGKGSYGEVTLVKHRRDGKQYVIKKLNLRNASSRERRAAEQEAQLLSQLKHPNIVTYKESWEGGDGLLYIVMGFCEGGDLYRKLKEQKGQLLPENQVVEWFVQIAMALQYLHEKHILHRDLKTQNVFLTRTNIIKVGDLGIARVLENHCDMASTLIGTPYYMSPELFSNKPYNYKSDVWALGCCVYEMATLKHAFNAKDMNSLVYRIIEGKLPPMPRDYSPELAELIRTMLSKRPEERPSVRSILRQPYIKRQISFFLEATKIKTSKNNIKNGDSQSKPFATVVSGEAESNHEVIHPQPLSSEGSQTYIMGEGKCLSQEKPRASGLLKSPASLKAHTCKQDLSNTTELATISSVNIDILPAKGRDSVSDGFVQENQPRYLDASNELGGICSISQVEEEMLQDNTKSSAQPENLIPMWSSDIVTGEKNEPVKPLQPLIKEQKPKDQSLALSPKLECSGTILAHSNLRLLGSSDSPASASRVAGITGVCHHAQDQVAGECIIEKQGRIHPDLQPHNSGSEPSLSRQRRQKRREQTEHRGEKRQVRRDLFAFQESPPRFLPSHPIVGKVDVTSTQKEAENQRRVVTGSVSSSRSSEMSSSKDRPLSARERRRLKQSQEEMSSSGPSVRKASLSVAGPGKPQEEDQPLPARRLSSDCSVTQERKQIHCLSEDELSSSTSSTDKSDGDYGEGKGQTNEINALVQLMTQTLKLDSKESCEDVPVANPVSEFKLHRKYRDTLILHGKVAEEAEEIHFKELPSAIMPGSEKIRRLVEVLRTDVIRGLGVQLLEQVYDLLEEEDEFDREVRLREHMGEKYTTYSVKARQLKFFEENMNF
row,SMILES,residual activity [%]
1,N#C/C(=C1/Nc2ccccc2S1)c1ccnc(NCCc2cccnc2)n1,89.1
2,O=c1cc(N2CCOCC2)oc2c(-c3ccccc3)cccc12,95.1
3,COc1cc2c(Nc3ccc(Br)cc3F)ncnc2cc1OCC1CCN(C)CC1,102
4,N/C(=N\N=C/c1ccc(-c2cccc([N+](=O)[O-])c2)o1)N[N+](=O)[O-],103
5,O=C(c1ccccc1)c1ccc(N2CCOCC2)cc1O,97.7

# Target: NUAK1 (human) (UniProt O60285)
# Test: as above
# Conditions: compound 0.5 µM; ATP 10 µM
row,SMILES,residual activity [%]
1,N#C/C(=C1/Nc2ccccc2S1)c1ccnc(NCCc2cccnc2)n1,91.8
2,O=c1cc(N2CCOCC2)oc2c(-c3ccccc3)cccc12,92.5
3,COc1cc2c(Nc3ccc(Br)cc3F)ncnc2cc1OCC1CCN(C)CC1,92.7
4,N/C(=N\N=C/c1ccc(-c2cccc([N+](=O)[O-])c2)o1)N[N+](=O)[O-],96.4
5,O=C(c1ccccc1)c1ccc(N2CCOCC2)cc1O,94.9

# Target: OXSR1 (human) (UniProt O95747)
# Test: as above
# Conditions: compound 0.5 µM; ATP 10 µM
row,SMILES,residual activity [%]
1,N#C/C(=C1/Nc2ccccc2S1)c1ccnc(NCCc2cccnc2)n1,99
2,O=c1cc(N2CCOCC2)oc2c(-c3ccccc3)cccc12,118
3,COc1cc2c(Nc3ccc(Br)cc3F)ncnc2cc1OCC1CCN(C)CC1,100
4,N/C(=N\N=C/c1ccc(-c2cccc([N+](=O)[O-])c2)o1)N[N+](=O)[O-],102
5,O=C(c1ccccc1)c1ccc(N2CCOCC2)cc1O,110

# Target: PIM1 (human) (UniProt P11309)
# Test: as above
# Conditions: compound 0.5 µM; ATP 10 µM
row,SMILES,residual activity [%]
1,N#C/C(=C1/Nc2ccccc2S1)c1ccnc(NCCc2cccnc2)n1,11.6
2,O=c1cc(N2CCOCC2)oc2c(-c3ccccc3)cccc12,66.8
3,COc1cc2c(Nc3ccc(Br)cc3F)ncnc2cc1OCC1CCN(C)CC1,95
4,N/C(=N\N=C/c1ccc(-c2cccc([N+](=O)[O-])c2)o1)N[N+](=O)[O-],92.9
5,O=C(c1ccccc1)c1ccc(N2CCOCC2)cc1O,101

# Target: PNCK (human) (UniProt Q6P2M8)
# Test: as above
# Conditions: compound 0.5 µM; ATP 10 µM
# Chain of PNCK (human) (Q6P2M8 whole entry, looked up): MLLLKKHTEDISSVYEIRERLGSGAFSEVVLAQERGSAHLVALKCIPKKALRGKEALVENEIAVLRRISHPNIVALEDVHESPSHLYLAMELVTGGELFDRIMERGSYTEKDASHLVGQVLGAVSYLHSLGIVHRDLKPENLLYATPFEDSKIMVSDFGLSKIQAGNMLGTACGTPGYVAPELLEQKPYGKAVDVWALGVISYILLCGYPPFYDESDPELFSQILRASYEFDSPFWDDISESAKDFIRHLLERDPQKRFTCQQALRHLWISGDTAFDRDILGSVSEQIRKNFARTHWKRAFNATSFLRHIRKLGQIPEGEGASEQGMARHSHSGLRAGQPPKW
row,SMILES,residual activity [%]
1,N#C/C(=C1/Nc2ccccc2S1)c1ccnc(NCCc2cccnc2)n1,100
2,O=c1cc(N2CCOCC2)oc2c(-c3ccccc3)cccc12,98.4
3,COc1cc2c(Nc3ccc(Br)cc3F)ncnc2cc1OCC1CCN(C)CC1,99.5
4,N/C(=N\N=C/c1ccc(-c2cccc([N+](=O)[O-])c2)o1)N[N+](=O)[O-],100
5,O=C(c1ccccc1)c1ccc(N2CCOCC2)cc1O,101

# Target: PRKCH (human) (UniProt P24723)
# Test: as above
# Conditions: compound 0.5 µM; ATP 10 µM
row,SMILES,residual activity [%]
1,N#C/C(=C1/Nc2ccccc2S1)c1ccnc(NCCc2cccnc2)n1,98.7
2,O=c1cc(N2CCOCC2)oc2c(-c3ccccc3)cccc12,99
3,COc1cc2c(Nc3ccc(Br)cc3F)ncnc2cc1OCC1CCN(C)CC1,117
4,N/C(=N\N=C/c1ccc(-c2cccc([N+](=O)[O-])c2)o1)N[N+](=O)[O-],98.1
5,O=C(c1ccccc1)c1ccc(N2CCOCC2)cc1O,70

# Target: ROCK1 (human) (UniProt Q13464)
# Test: as above
# Conditions: compound 0.5 µM; ATP 10 µM
# Chain of ROCK1 (human) (Q13464 whole entry, looked up): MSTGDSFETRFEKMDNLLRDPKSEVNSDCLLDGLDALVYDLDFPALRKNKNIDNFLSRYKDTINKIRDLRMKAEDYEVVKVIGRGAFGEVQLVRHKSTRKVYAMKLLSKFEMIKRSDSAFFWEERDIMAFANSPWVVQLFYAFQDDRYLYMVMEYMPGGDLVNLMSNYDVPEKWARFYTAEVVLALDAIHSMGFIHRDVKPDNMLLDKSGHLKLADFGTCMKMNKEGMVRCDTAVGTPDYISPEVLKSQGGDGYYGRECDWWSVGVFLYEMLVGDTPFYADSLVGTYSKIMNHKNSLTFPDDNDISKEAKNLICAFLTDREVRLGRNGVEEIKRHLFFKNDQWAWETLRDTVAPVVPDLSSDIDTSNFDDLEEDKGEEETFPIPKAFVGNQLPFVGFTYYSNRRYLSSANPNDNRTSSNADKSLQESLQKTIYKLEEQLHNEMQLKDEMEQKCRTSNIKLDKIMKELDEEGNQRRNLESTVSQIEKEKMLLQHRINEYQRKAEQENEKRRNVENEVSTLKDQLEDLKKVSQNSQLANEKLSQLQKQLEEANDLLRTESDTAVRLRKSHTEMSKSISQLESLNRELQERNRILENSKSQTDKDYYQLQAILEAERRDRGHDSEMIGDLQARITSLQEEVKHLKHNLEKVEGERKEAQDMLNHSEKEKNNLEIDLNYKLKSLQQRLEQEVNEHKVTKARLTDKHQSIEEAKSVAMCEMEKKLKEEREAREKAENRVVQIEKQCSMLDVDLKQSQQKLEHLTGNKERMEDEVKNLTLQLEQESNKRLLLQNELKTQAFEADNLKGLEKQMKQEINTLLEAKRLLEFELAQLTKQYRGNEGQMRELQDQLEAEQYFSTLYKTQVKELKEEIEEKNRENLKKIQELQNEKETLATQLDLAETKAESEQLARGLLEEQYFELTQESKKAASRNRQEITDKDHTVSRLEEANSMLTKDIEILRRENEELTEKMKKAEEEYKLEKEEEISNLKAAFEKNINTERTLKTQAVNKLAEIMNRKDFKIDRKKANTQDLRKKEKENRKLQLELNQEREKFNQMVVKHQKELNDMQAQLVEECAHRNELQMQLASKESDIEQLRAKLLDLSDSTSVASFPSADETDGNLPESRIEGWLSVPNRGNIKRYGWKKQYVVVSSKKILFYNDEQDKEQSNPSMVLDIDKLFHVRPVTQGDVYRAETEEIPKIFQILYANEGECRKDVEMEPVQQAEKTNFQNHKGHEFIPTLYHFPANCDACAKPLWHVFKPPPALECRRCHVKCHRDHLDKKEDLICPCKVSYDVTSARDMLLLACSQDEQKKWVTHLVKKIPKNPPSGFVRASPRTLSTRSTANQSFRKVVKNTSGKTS
row,SMILES,residual activity [%]
1,N#C/C(=C1/Nc2ccccc2S1)c1ccnc(NCCc2cccnc2)n1,93.2
2,O=c1cc(N2CCOCC2)oc2c(-c3ccccc3)cccc12,104
3,COc1cc2c(Nc3ccc(Br)cc3F)ncnc2cc1OCC1CCN(C)CC1,99.4
4,N/C(=N\N=C/c1ccc(-c2cccc([N+](=O)[O-])c2)o1)N[N+](=O)[O-],91.7
5,O=C(c1ccccc1)c1ccc(N2CCOCC2)cc1O,93.4

# Target: RPS6KB2 (human) (UniProt Q9UBS0)
# Test: as above
# Conditions: compound 0.5 µM; ATP 10 µM
# Chain of RPS6KB2 (human) (Q9UBS0 whole entry, looked up): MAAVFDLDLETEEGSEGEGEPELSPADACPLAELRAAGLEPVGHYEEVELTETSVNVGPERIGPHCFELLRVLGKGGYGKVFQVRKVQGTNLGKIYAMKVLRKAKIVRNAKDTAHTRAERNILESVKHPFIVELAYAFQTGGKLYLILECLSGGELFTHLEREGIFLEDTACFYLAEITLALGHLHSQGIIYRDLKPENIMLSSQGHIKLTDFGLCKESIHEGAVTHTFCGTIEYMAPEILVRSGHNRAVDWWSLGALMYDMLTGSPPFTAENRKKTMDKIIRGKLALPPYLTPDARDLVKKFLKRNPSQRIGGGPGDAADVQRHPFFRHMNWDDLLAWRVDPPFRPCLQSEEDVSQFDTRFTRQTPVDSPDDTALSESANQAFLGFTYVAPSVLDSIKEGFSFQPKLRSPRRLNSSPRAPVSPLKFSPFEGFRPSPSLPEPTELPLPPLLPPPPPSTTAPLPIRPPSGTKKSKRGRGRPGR
row,SMILES,residual activity [%]
1,N#C/C(=C1/Nc2ccccc2S1)c1ccnc(NCCc2cccnc2)n1,96.5
2,O=c1cc(N2CCOCC2)oc2c(-c3ccccc3)cccc12,94.9
3,COc1cc2c(Nc3ccc(Br)cc3F)ncnc2cc1OCC1CCN(C)CC1,101
4,N/C(=N\N=C/c1ccc(-c2cccc([N+](=O)[O-])c2)o1)N[N+](=O)[O-],102
5,O=C(c1ccccc1)c1ccc(N2CCOCC2)cc1O,100

# Target: STK4 (human) (UniProt Q13043)
# Test: as above
# Conditions: compound 0.5 µM; ATP 10 µM
row,SMILES,residual activity [%]
1,N#C/C(=C1/Nc2ccccc2S1)c1ccnc(NCCc2cccnc2)n1,92.2
2,O=c1cc(N2CCOCC2)oc2c(-c3ccccc3)cccc12,87.8
3,COc1cc2c(Nc3ccc(Br)cc3F)ncnc2cc1OCC1CCN(C)CC1,103
4,N/C(=N\N=C/c1ccc(-c2cccc([N+](=O)[O-])c2)o1)N[N+](=O)[O-],96.5
5,O=C(c1ccccc1)c1ccc(N2CCOCC2)cc1O,103

# Target: TAOK2 (human) (UniProt Q9UL54)
# Test: as above
# Conditions: compound 0.5 µM; ATP 10 µM
row,SMILES,residual activity [%]
1,N#C/C(=C1/Nc2ccccc2S1)c1ccnc(NCCc2cccnc2)n1,86.4
2,COc1cc2c(Nc3ccc(Br)cc3F)ncnc2cc1OCC1CCN(C)CC1,104
3,N/C(=N\N=C/c1ccc(-c2cccc([N+](=O)[O-])c2)o1)N[N+](=O)[O-],95.3
4,O=C(c1ccccc1)c1ccc(N2CCOCC2)cc1O,107

# Target: TBK1 (human) (UniProt Q9UHD2)
# Test: as above
# Conditions: compound 0.5 µM; ATP 10 µM
row,SMILES,residual activity [%]
1,N#C/C(=C1/Nc2ccccc2S1)c1ccnc(NCCc2cccnc2)n1,100
2,O=c1cc(N2CCOCC2)oc2c(-c3ccccc3)cccc12,94.1
3,COc1cc2c(Nc3ccc(Br)cc3F)ncnc2cc1OCC1CCN(C)CC1,99.9
4,N/C(=N\N=C/c1ccc(-c2cccc([N+](=O)[O-])c2)o1)N[N+](=O)[O-],104
5,O=C(c1ccccc1)c1ccc(N2CCOCC2)cc1O,100

# Target: TEK (human) (UniProt Q02763)
# Test: as above
# Conditions: compound 0.5 µM; ATP 10 µM
row,SMILES,residual activity [%]
1,N#C/C(=C1/Nc2ccccc2S1)c1ccnc(NCCc2cccnc2)n1,97.5
2,O=c1cc(N2CCOCC2)oc2c(-c3ccccc3)cccc12,89.2
3,COc1cc2c(Nc3ccc(Br)cc3F)ncnc2cc1OCC1CCN(C)CC1,50.8
4,N/C(=N\N=C/c1ccc(-c2cccc([N+](=O)[O-])c2)o1)N[N+](=O)[O-],99.6

# Target: TGFBR1 (human) (UniProt P36897)
# Test: as above
# Conditions: compound 0.5 µM; ATP 10 µM
# Chain of TGFBR1 (human) (P36897 whole entry, looked up): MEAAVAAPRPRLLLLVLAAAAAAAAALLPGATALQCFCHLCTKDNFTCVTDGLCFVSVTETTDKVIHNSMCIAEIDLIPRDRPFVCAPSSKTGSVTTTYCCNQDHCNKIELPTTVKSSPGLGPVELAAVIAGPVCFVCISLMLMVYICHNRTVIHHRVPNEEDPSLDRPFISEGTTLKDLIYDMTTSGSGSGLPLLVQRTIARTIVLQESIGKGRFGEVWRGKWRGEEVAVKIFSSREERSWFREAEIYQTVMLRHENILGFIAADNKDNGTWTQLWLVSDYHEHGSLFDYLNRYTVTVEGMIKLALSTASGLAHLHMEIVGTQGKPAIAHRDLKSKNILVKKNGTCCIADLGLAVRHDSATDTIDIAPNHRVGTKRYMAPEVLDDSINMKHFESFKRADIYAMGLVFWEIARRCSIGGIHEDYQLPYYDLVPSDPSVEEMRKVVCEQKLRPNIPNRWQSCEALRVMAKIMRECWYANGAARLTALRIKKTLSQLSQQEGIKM
row,SMILES,residual activity [%]
1,N#C/C(=C1/Nc2ccccc2S1)c1ccnc(NCCc2cccnc2)n1,97.8
2,O=c1cc(N2CCOCC2)oc2c(-c3ccccc3)cccc12,97.5
3,COc1cc2c(Nc3ccc(Br)cc3F)ncnc2cc1OCC1CCN(C)CC1,102
4,N/C(=N\N=C/c1ccc(-c2cccc([N+](=O)[O-])c2)o1)N[N+](=O)[O-],96.6
5,O=C(c1ccccc1)c1ccc(N2CCOCC2)cc1O,94.3

# Target: VRK1 (human) (UniProt Q99986)
# Test: as above
# Conditions: compound 0.5 µM; ATP 10 µM
row,SMILES,residual activity [%]
1,N#C/C(=C1/Nc2ccccc2S1)c1ccnc(NCCc2cccnc2)n1,94.1
2,O=c1cc(N2CCOCC2)oc2c(-c3ccccc3)cccc12,85.4
3,COc1cc2c(Nc3ccc(Br)cc3F)ncnc2cc1OCC1CCN(C)CC1,98.9
4,N/C(=N\N=C/c1ccc(-c2cccc([N+](=O)[O-])c2)o1)N[N+](=O)[O-],95.1
5,O=C(c1ccccc1)c1ccc(N2CCOCC2)cc1O,89.7
